Assay results published in patent US20250145665A1, “MACROCYCLIC PEPTIDES USEFUL AS MODULATORS OF TNF ALPHA” (Bristol-Myers Squibb Company, priority 2023, published 2025).
Starred links: 1 amine or outer side, 2 acyl side, 3 side chain; linkers in the order of their positions; H or OH if unused. Positions of bridges follow the written chain, without caps; N, C: chain ends. Non-standard residues stand in square brackets, D forms with d. Residues, ends and D or L forms follow the SMILES beside them. *: point of attachment. X65 = O=C(O)Cc1cccc(NC(=O)c2ccc(-c3ccc(C[C@H](N[*:1])C(=O)[*:2])cc3)cc2)c1; X5 = Cn1nc(C(=O)Nc2ccc(-c3ccc(C[C@H](N[*:1])C(=O)[*:2])cc3)cc2)c2ccccc21; dArg(ω-(2S)-2,3-diOHpropyl) = N=C(NCCC[C@@H](N)C(=O)O)NC[C@H](O)CO; Bip(4'-NH) = O=C([C@H](Cc1ccc(-c2ccc(N[*:3])cc2)cc1)N[*:1])[*:2]; dArg(ω-(3-HO-benzyl)) = N=C(NCCC[C@@H](N)C(=O)O)NCc1cccc(O)c1; Bip(4'-COOH) = N[C@@H](Cc1ccc(-c2ccc(C(=O)O)cc2)cc1)C(=O)O; Bip(4'-NHAc) = CC(=O)Nc1ccc(-c2ccc(C[C@H](N)C(=O)O)cc2)cc1; Indole3carbonyl(1-CH2COOH) = O=C(O)Cn1cc(C(=O)*)c2ccccc21; Ala(imidazol-2-yl) = N[C@@H](Cc1ncc[nH]1)C(=O)O; dArg(ω-Bn) = N=C(NCCC[C@@H](N)C(=O)O)NCc1ccccc1; Ala(morpholin-4-yl) = N[C@@H](CN1CCOCC1)C(=O)O; Phe(3-CONH2) = NC(=O)c1cccc(C[C@H](N)C(=O)O)c1; Bip = N[C@@H](Cc1ccc(-c2ccccc2)cc1)C(=O)O; Ala(2-furyl) = N[C@@H](Cc1ccco1)C(=O)O; hPhe = N[C@@H](CCc1ccccc1)C(=O)O; 2Pal = N[C@@H](Cc1ccccn1)C(=O)O; Cha = N[C@@H](CC1CCCCC1)C(=O)O; Sar = CNCC(=O)O

Target: TNFα (Homo sapiens, UniProt P01375)
Sequence (P01375 77-233 limits assumed): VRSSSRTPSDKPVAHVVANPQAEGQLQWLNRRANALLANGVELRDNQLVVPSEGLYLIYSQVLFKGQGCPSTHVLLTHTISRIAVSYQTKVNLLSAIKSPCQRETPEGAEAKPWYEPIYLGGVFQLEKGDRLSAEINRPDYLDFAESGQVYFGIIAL
Assay: TNF-Induced HEK-Blue Assay
Format: cell-based
Details: not given

| Compound | IC50 |
| --- | --- |
| CC(C)C[C@@H]1NC(=O)[C@H](Cc2cccc(C(N)=O)c2)NC(=O)[C@H](C(C)C)NC(=O)[C@@H]2CCCN2C(=O)[C@H](C(C)C)NC(=O)[C@@H](CCCNC(=N)NC[C@H](O)CO)NC(=O)[C@H](CC(=O)O)NC(=O)[C@H](Cc2ccc(O)cc2)NC(=O)CN(C)C(=O)[C@H](Cc2ccc(-c3ccc(NC(=O)c4cn(CC(=O)O)c5ccccc45)cc3)cc2)NC(=O)[C@H](Cc2ccc(-c3ccccc3)cc2)NC(=O)[C@H](CN2CCOCC2)NC(=O)CSC[C@@H](C(=O)NCC(N)=O)NC1=O [Example 547] ({CH2CO}-[Ala(morpholin-4-yl)][Bip][Bip(4'-NH)](Indole3carbonyl(1-CH2COOH))[Sar]YD[dArg(ω-(2S)-2,3-diOHpropyl)]VPV[Phe(3-CONH2)]LCG-NH2; thioether N-13) | < 50 nM |
| CC(C)C[C@@H]1NC(=O)[C@H](Cc2cccc(C(N)=O)c2)NC(=O)[C@H](C(C)C)NC(=O)[C@@H]2CCCN2C(=O)[C@H](C(C)C)NC(=O)[C@@H](CCCNC(=N)NCc2ccccc2)NC(=O)[C@H](CC(=O)O)NC(=O)[C@@H]2CCCN2C(=O)CN(C)C(=O)[C@H](Cc2ccc(-c3ccc(NC(=O)c4cn(CC(=O)O)c5ccccc45)cc3)cc2)NC(=O)[C@H](Cc2ccc(-c3ccccc3)cc2)NC(=O)[C@H](CN2CCOCC2)NC(=O)CSC[C@@H](C(=O)NCC(N)=O)NC1=O [Example 535] ({CH2CO}-[Ala(morpholin-4-yl)][Bip][Bip(4'-NH)](Indole3carbonyl(1-CH2COOH))[Sar]PD[dArg(ω-Bn)]VPV[Phe(3-CONH2)]LCG-NH2; thioether N-13) | < 50 nM |
| CC(C)C[C@@H]1NC(=O)[C@H](Cc2ncc[nH]2)NC(=O)[C@H](C(C)C)NC(=O)[C@@H]2CCCN2C(=O)[C@H](C(C)C)NC(=O)[C@@H](CCCNC(=N)NCc2cccc(O)c2)NC(=O)[C@H](CC(=O)O)NC(=O)[C@H](Cc2ccccn2)NC(=O)CN(C)C(=O)[C@H](Cc2ccc(-c3ccc(NC(=O)c4cn(CC(=O)O)c5ccccc45)cc3)cc2)NC(=O)[C@H](Cc2ccc(-c3ccc(C(=O)O)cc3)cc2)NC(=O)[C@H](CC2CCCCC2)NC(=O)CSC[C@@H](C(=O)NCC(N)=O)NC1=O [Example 552] ({CH2CO}-[Cha][Bip(4'-COOH)][Bip(4'-NH)](Indole3carbonyl(1-CH2COOH))[Sar][2Pal]D[dArg(ω-(3-HO-benzyl))]VPV[Ala(imidazol-2-yl)]LCG-NH2; thioether N-13) | 50 to 200 nM |

Same assay, conditions: HEK-Blue-CD40L cells, NF-kB-driven secreted alkaline phosphatase reporter; TNFα 0.5 ng/ml; 18 h; read-out: TNF induced HEK-Blue assay IC50 value

| IC50 | Compound |
| --- | --- |
| 50 to 200 nM | CC[C@H](C)[C@@H]1NC(=O)[C@@H](CCCNC(=N)N)NC(=O)[C@H](CC(=O)O)NC(=O)[C@H](Cc2cnc[nH]2)NC(=O)CN(C)C(=O)[C@H](Cc2ccc(-c3ccc(C(=O)Nc4cccc(CC(=O)O)c4)cc3)cc2)NC(=O)[C@H](Cc2ccc(-c3ccc(C(=O)O)cc3)cc2)NC(=O)[C@H](Cc2cccc(C(N)=O)c2)NC(=O)CSC[C@@H](C(=O)NCC(N)=O)NC(=O)[C@H](CC(C)C)NC(=O)[C@H](Cc2cnc[nH]2)NC(=O)[C@H](C(C)C)NC(=O)[C@@H]2CCCN2C1=O [Example 634] ({CH2CO}-[Phe(3-CONH2)][Bip(4'-COOH)][X65][Sar]HD[dR]IPVHLCG-NH2; thioether N-13) |
| 50 to 200 nM | CC(=O)Nc1ccc(-c2ccc(C[C@@H]3NC(=O)[C@H](Cc4ccc(-c5ccccc5)cc4)NC(=O)[C@H](CN4CCOCC4)NC(=O)CSC[C@@H](C(=O)NCC(N)=O)NC(=O)[C@H](CC(C)C)NC(=O)[C@H](Cc4cnc[nH]4)NC(=O)[C@H](C(C)C)NC(=O)[C@@H]4CCCN4C(=O)[C@H](C(C)C)NC(=O)[C@@H](CCCNC(=N)N)NC(=O)[C@H](CC(=O)O)NC(=O)[C@H](Cc4ccco4)NC(=O)CN(C)C3=O)cc2)cc1 [Example 519] ({CH2CO}-[Ala(morpholin-4-yl)][Bip][Bip(4'-NHAc)][Sar][Ala(2-furyl)]D[dR]VPVHLCG-NH2; thioether N-13) |
| 50 to 200 nM | CC(C)C[C@@H]1NC(=O)[C@H](CCc2ccccc2)NC(=O)[C@H](C(C)C)NC(=O)[C@@H]2CCCN2C(=O)[C@H](C(C)C)NC(=O)[C@@H](CCCNC(=N)N)NC(=O)[C@H](CC(=O)O)NC(=O)[C@H](Cc2ccc(O)cc2)NC(=O)CN(C)C(=O)[C@H](Cc2ccc(-c3ccccc3)cc2)NC(=O)[C@H](Cc2ccc(-c3ccccc3)cc2)NC(=O)[C@H](CN2CCOCC2)NC(=O)CSC[C@@H](C(=O)NCC(N)=O)NC1=O [Example 154] ({CH2CO}-[Ala(morpholin-4-yl)][Bip][Bip][Sar]YD[dR]VPV[hPhe]LCG-NH2; thioether N-13) |

| Compound | IC50 |
| --- | --- |
| CC(C)C[C@@H]1NC(=O)[C@H](Cc2ccc(O)cc2)NC(=O)[C@H](C(C)C)NC(=O)[C@@H]2CCCN2C(=O)[C@H](C(C)C)NC(=O)[C@@H](CCCNC(=N)N)NC(=O)[C@H](CC(=O)O)NC(=O)[C@@H]2CCCN2C(=O)CN(C)C(=O)[C@H](Cc2ccc(-c3ccc(NC(=O)c4nn(C)c5ccccc45)cc3)cc2)NC(=O)[C@H](Cc2ccc(-c3ccc(C(=O)O)cc3)cc2)NC(=O)[C@H](CC2CCCCC2)NC(=O)CSC[C@@H](C(=O)NCC(N)=O)NC1=O [Example 340] ({CH2CO}-[Cha][Bip(4'-COOH)][X5][Sar]PD[dR]VPVYLCG-NH2; thioether N-13) | < 50 nM |
